Laboratory results taken from patent US20240336601A1 (Chulalongkorn University, priority 2020, published 2024).

What was measured:
[1] = target: interaction between PD-1 and PD-L1 (Homo sapiens, UniProt Q9NZQ7); test: PD-1/PD-L1 protein-protein interaction assay (ALPHA); type: binding; details: 2 nM His-tagged human PD-L1, 0.6 nM PD-1-Fc, AlphaScreen
PD-1/PD-L1 interaction = target: T1, PD-1/PD-L1 interaction (Homo sapiens, UniProt Q9NZQ7); test: PD-1/PD-L1 blockage cell-based bioassay (Jurkat NFAT luciferase / CHO-PDL1 co-culture); details: Jurkat NFAT cells co-cultured with CHO-PDL1 cells, 6 h, luminescence
T1 construct: expressed in transfected cells
T1 sequence (Q9NZQ7 19-290): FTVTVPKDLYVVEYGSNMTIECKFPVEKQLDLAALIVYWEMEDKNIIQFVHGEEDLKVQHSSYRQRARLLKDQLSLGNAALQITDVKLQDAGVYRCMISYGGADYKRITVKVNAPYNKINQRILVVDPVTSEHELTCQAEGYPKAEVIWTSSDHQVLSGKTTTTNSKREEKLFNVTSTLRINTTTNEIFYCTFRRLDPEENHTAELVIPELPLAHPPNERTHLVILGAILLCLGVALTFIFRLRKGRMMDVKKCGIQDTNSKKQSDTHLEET

Chain of interaction between PD-1 and PD-L1 (Q9NZQ7 19-238 limits assumed): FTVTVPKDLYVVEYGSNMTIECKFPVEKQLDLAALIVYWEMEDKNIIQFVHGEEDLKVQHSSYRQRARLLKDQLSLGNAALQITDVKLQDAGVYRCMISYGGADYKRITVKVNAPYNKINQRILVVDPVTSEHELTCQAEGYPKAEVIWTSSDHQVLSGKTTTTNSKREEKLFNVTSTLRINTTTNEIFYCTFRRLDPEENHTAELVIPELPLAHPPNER

Structure (SMILES) | IC50 [1] | IC50 (PD-1/PD-L1 interaction)
COc1cc(-n2ccc3c(-c4cccc(NC(=O)c5nc6c(s5)CN(C)CC6)c4C)cccc32)cc(OC)c1CNC[C@@H]1CCC(=O)N1 [Example 67, (S)—N-(3-(1-(3,5-dimethoxy-4-((((5-oxopyrrolidin-2-yl)methyl)amino)methyl)phenyl)-1H-indol-4-yl)-2-methylphenyl)-5-methyl-4,5,6,7-tetrahydrothiazolo[5,4-c]pyridine-2-carboxamide] | 1 to 10 nM | > 2000 nM
COc1cc(-n2ccc3c(-c4cccc(-c5ccc(CN6CC(C)(C(=O)O)C6)c(OC)n5)c4Cl)ccnc32)cc(OC)c1CNC[C@@H]1CCC(=O)N1 [Example 70, (S)-1-((6-(2-chloro-3-(1-(3,5-dimethoxy-4-((((5-oxopyrrolidin-2-yl)methyl)amino)methyl)phenyl)-1H-pyrrolo[2,3-b]pyridin-4-yl)phenyl)-2-methoxypyridin-3-yl)methyl)-3-methylazetidine-3-carboxylic acid] | 1 to 10 nM | > 2000 nM
COc1cc(-n2ncc3c(-c4cccc(-c5ccc(C6=NCCN6)c(OC)n5)c4Cl)cccc32)cc(OC)c1CNC[C@@H]1CCC(=O)N1 [Example 74, (S)-5-(((4-(4-(2-chloro-3-(5-(4,5-dihydro-1H-imidazol-2-yl)-6-methoxypyridin-2-yl)phenyl)-1H-indazol-1-yl)-2,6-dimethoxybenzyl)amino)methyl)pyrrolidin-2-one] | < 1 nM | < 200 nM
COc1cc(-n2ncc3c(-c4cccc(-c5ccc(C6=NCCN6)c(OC)n5)c4Cl)cccc32)cc(OC)c1CN1CC2(CNC(=O)C2)C1 [Example 76, 2-(4-(4-(2-chloro-3-(5-(4,5-dihydro-1H-imidazol-2-yl)-6-methoxypyridin-2-yl)phenyl)-1H-indazol-1-yl)-2,6-dimethoxybenzyl)-2,6-diazaspiro[3.4]octan-7-one] | < 1 nM | < 200 nM
COc1cc(-n2ncc3c(-c4cccc(-c5ccc(C6=NCCN6)c(OC)n5)c4Cl)cccc32)cc(OC)c1CNC[C@H]1C[C@@H](O)C1 [Example 77, cis-3-(((4-(4-(2-chloro-3-(5-(4,5-dihydro-1H-imidazol-2-yl)-6-methoxypyridin-2-yl)phenyl)-1H-indazol-1-yl)-2,6-dimethoxybenzyl)amino)methyl)cyclobutanol] | < 1 nM | 201 to 2000 nM
COc1cc(-n2ccc3c(-c4cccc(-c5ccc(CNC[C@H]6C[C@@H](O)C6)c(OC)n5)c4Cl)cccc32)cc(OC)c1CNC[C@@H]1CCC(=O)N1 [Example 82, (S)-5-(((4-(4-(2-chloro-3-(5-((((cis-3-hydroxycyclobutyl)methyl)amino)methyl)-6-methoxypyridin-2-yl)phenyl)-1H-indol-1-yl)-2,6-dimethoxybenzyl)amino)methyl)pyrrolidin-2-one] | 1 to 10 nM | 201 to 2000 nM
COc1cc(N2CCc3c(-c4cccc(-c5nc6c(s5)CNCC6)c4C)cccc32)cc(OC)c1CNC[C@@H]1CCC(=O)N1 [Example 85, (S)-5-(((2,6-dimethoxy-4-(4-(2-methyl-3-(4,5,6,7-tetrahydrothiazolo[5,4-c]pyridin-2-yl)phenyl)indolin-1-yl)benzyl)amino)methyl)pyrrolidin-2-one] | 10 to 100 nM | > 2000 nM
COc1cc(-n2ncc3c(-c4cccc(-c5ccc(CN6CC[C@@H](O)C6)c(OC)n5)c4Cl)cccc32)cc(OC)c1CNC[C@@H]1CCC(=O)N1 [Example 87, (S)-5-(((4-(4-(2-chloro-3-(5-(((R)-3-hydroxypyrrolidin-1-yl)methyl)-6-methoxypyridin-2-yl)phenyl)-1H-indazol-1-yl)-2,6-dimethoxybenzyl)amino)methyl) pyrrolidin-2-one] | 1 to 10 nM | > 2000 nM
COc1cc(-n2ncc3c(-c4cccc(-c5ccc(CNC[C@@H]6CCC(=O)N6)c(OC)n5)c4Cl)cccc32)cc(OC)c1CN1CC(C)(C(=O)NC2CC2)C1 [Example 88, (S)-1-(4-(4-(2-chloro-3-(6-methoxy-5-((((5-oxopyrrolidin-2-yl)methyl)amino)methyl)pyridin-2-yl)phenyl)-1H-indazol-1-yl)-2,6-dimethoxybenzyl)-N-cyclopropyl-3-methylazetidine-3-carboxamide] | 1 to 10 nM | 201 to 2000 nM
COc1cc(-n2ncc3c(-c4cccc(-c5ccc(CN6CC7(CNC(=O)C7)C6)c(OC)n5)c4Cl)cccc32)cc(OC)c1CNC[C@H]1C[C@@H](O)C1 [Example 91, 2-((6-(2-chloro-3-(1-(4-(((((cis)-3-hydroxycyclobutyl)methyl)amino)methyl)-3,5-dimethoxyphenyl)-1H-indazol-4-yl)phenyl)-2-methoxypyridin-3-yl)methyl)-2,6-diazaspiro[3.4]octan-7-one] | 1 to 10 nM | 201 to 2000 nM
COc1cc(-c2cn(C)c3c(-c4cccc(-c5ccc(CNC[C@@H]6CCC(=O)N6)c(OC)n5)c4Cl)cccc23)cc(OC)c1CNC[C@@H]1CCC(=O)N1 [Example 93, (S)-5-((((6-(2-chloro-3-(3-(3,5-dimethoxy-4-(((((S)-5-oxopyrrolidin-2-yl)methyl)amino)methyl)phenyl)-1-methyl-1H-indol-7-yl)phenyl)-2-methoxypyridin-3-yl)methyl)amino)methyl)pyrrolidin-2-one] | 1 to 10 nM | > 2000 nM
COc1cc(-n2ncc3c(-c4cccc(-c5ccc(CN6CC(C)(C(=O)NC7CC7)C6)c(OC)n5)c4Cl)cccc32)cc(OC)c1CNC[C@H]1C[C@@H](O)C1 [Example 95, 1-((6-(2-chloro-3-(1-(4-((((cis-3-hydroxycyclobutyl)methyl)amino)methyl)-3,5-dimethoxyphenyl)-1H-indazol-4-yl)phenyl)-2-methoxypyridin-3-yl)methyl)-N-cyclopropyl-3-methylazetidine-3-carboxamide] | 1 to 10 nM | 201 to 2000 nM
COc1cc(-n2ccc3c(-c4cccc(-c5ccc(CN6CC7(CNC(=O)C7)C6)c(OC)n5)c4Cl)cccc32)cc(OC)c1CNC[C@@H]1CCC(=O)N1 [Example 96, (S)-2-((6-(2-chloro-3-(1-(3,5-dimethoxy-4-((((5-oxopyrrolidin-2-yl)methyl)amino)methyl)phenyl)-1H-indol-4-yl)phenyl)-2-methoxypyridin-3-yl)methyl)-2,6-diazaspiro[3.4]octan-7-one] | 1 to 10 nM | 201 to 2000 nM
COc1cc(-n2ncc3c(-c4cccc(-c5ccc(CN6CC7(CNC(=O)C7)C6)c(OC)n5)c4Cl)cccc32)cc(OC)c1CN[C@H]1C[C@@H](O)C1 [Example 97, 2-((6-(2-chloro-3-(l-(4-(((cis-3-hydroxycyclobutyl)amino)methyl)-3,5-dimethoxyphenyl)-1H-indazol-4-yl)phenyl)-2-methoxypyridin-3-yl)methyl)-2,6-diazaspiro[3.4]octan-7-one] | < 1 nM | < 200 nM

Results, then the compound that gave them:

IC50 [1] | IC50 (PD-1/PD-L1 interaction) | Structure (SMILES)
< 1 nM | < 200 nM | COc1cc(-n2ncc3c(-c4cccc(-c5ccc(CNC[C@H]6C[C@@H](O)C6)c(OC)n5)c4Cl)cccc32)cc(OC)c1CN1CC(C)(O)C1 [Example 68, 1-(4-(4-(2-chloro-3-(5-((((cis-3-hydroxycyclobutyl)methyl)amino)methyl)-6-methoxypyridin-2-yl)phenyl)-1H-indazol-1-yl)-2,6-dimethoxybenzyl)-3-methylazetidin-3-ol]
< 1 nM | < 200 nM | COc1cc(-n2ncc3c(-c4cccc(-c5ccc(CN6CC7(CNC(=O)C7)C6)c(OC)n5)c4Cl)cccc32)cc(OC)c1CN1CC(C)(O)C1 [Example 79, 2-((6-(2-chloro-3-(1-(4-((3-hydroxy-3-methylazetidin-1-yl)methyl)-3,5-dimethoxyphenyl)-1H-indazol-4-yl)phenyl)-2-methoxypyridin-3-yl)methyl)-2,6-diazaspiro[3.4]octan-7-one]
1 to 10 nM | 201 to 2000 nM | COc1cc(-n2ccc3c(-c4cccc(-c5ccc(CNC[C@@H]6CCC(=O)N6)c(OC)n5)c4Cl)cccc32)cc(OC)c1CN1CC[C@H](O)C1 [Example 83, (S)-5-((((6-(2-chloro-3-(1-(4-(((S)-3-hydroxypyrrolidin-1-yl)methyl)-3,5-dimethoxyphenyl)-1H-indol-4-yl)phenyl)-2-methoxypyridin-3-yl)methyl)amino)methyl)pyrrolidin-2-one]
< 1 nM | 201 to 2000 nM | COc1cc(-n2ccc3c(-c4cccc(-c5ccc(CN6CC(C)(O)C6)c(OC)n5)c4Cl)cccc32)cc(OC)c1CN1CC2(CNC(=O)C2)C1 [Example 84, 2-(4-(4-(2-chloro-3-(5-((3-hydroxy-3-methylazetidin-1-yl)methyl)-6-methoxypyridin-2-yl)phenyl)-1H-indol-1-yl)-2,6-dimethoxybenzyl)-2,6-diazaspiro[3.4]octan-7-one]
1 to 10 nM | 201 to 2000 nM | COc1cc(-n2ncc3c(-c4cccc(-c5ccc(CN6CC7(CNC(=O)C7)C6)c(OC)n5)c4Cl)cccc32)cc(OC)c1CN1CC2(CNC(=O)C2)C1 [Example 90, 2-(4-(4-(2-chloro-3-(6-methoxy-5-((7-oxo-2,6-diazaspiro[3.4]octan-2-yl)methyl)pyridin-2-yl)phenyl)-1H-indazol-1-yl)-2,6-dimethoxybenzyl)-2,6-diazaspiro[3.4]octan-7-one]
< 1 nM | < 200 nM | COc1cc(-n2ncc3c(-c4cccc(-c5ccc(CN6CC(C)(C(=O)NC7CC7)C6)c(OC)n5)c4Cl)cccc32)cc(OC)c1CNC[C@@H]1CCC(=O)N1 [Example 92, (S)-1-((6-(2-chloro-3-(1-(3,5-dimethoxy-4-((((5-oxopyrrolidin-2-yl)methyl)amino)methyl)phenyl)-1H-indazol-4-yl)phenyl)-2-methoxypyridin-3-yl)methyl)-N-cyclopropyl-3-methylazetidine-3-carboxamide]
< 1 nM | < 200 nM | COc1cc(-n2ncc3c(-c4cccc(-c5ccc(CN[C@H]6C[C@@H](O)C6)c(OC)n5)c4Cl)cccc32)cc(OC)c1CN1CC(C)(C(=O)NC2CC2)C1 [Example 100, 1-(4-(4-(2-chloro-3-(5-(((cis-3-hydroxycyclobutyl)amino)methyl)-6-methoxypyridin-2-yl)phenyl)-1H-indazol-1-yl)-2,6-dimethoxybenzyl)-N-cyclopropyl-3-methylazetidine-3-carboxamide]
